Tests used:
[1] = target: T1, human PPARγ ligand-binding domain (Homo sapiens, UniProt P37231); experiment: PPARγ ligand activity, GAL4-hPPARγ luciferase reporter assay in CV-1 cells; assay type: cell-based; settings: for PPARγ ligand activity: luciferase activity relative to non-treatment control (DMSO) = 100, average ± standard error, n=4
T1 construct: expressed in transfected cells; host or cells: CV-1 cells (African green monkey kidney)
T1 sequence (P37231 204-505): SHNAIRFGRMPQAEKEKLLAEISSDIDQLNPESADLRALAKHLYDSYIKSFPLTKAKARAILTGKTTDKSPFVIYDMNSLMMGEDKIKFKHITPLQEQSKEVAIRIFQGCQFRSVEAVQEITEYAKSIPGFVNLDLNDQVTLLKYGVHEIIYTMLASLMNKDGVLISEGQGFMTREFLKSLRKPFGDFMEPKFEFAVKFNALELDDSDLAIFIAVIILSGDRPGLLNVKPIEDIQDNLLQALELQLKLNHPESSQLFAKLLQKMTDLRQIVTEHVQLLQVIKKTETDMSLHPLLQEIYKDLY
Method: First, CV-1 cells (cultured cells derived from kidneys of male African green monkeys) were inoculated on 24-well culture plates so as to be […] and cultured at 37° C. in 5% CO2 for 24 hours. As a medium, DMEM (Dulbecco's Modified Eagle Medium; available from GIBCO) containing 10% FBS (fetal bovine serum) and a 10 mg/ml penicillin streptomycin solution was used. Next, using the Lipofectamine system (Invitrogen Corporation), pM-hPPARγ and p4×UASg-tk-luc were transfected into the cultured CV-1 cells. The above-noted pM-hPPARγ was a vector for expressing fusion protein containing residues 1-147 of GAL4 binding domain and residues 204-505 of human PPARγ ligand-binding domain, and the above-noted p4×UASg-tk-luc was a reporter plasmid containing four copies of an upstream activating sequence (UAS) for GAL4 binding domain and a thymidine kinase gene promoter upstream of a luciferase gene. After the transfection, the cells were cultured for about 24 hours, and then, the media for the cells were changed to media containing nobiletin at respective concentrations (0.1, 1.0, and 50 μM) or media for non-treatment control, followed by an additional 24 hour culture. The above-noted media containing nobiletin were prepared by adding nobiletin dissolved in dimethyl sulfoxide (DMSO) to the media, whereas the media for non-treatment control were prepared by adding only DMSO to the media. After the culture, the cells were lysed and the measurement of luciferase activity was performed using a Dual-Luciferase
Reporter Gene Assay system (available from Promega Corporation) (Measurement Group).
Similarly to the measurement group, as a control group, the measurement of luciferase activity was performed using pM (a vector containing residues 1-147 of GAL4 binding domain and not containing residues 204-505 of PPARγ ligand-binding domain in pM-hPPARγ) instead of the pM-hPPARγ. For each sample, the ratio between average luminescence intensities of the measurement group and the control group (n=4) (measurement group/control group) was calculated, and the luciferase activity relative to the non-treatment control was determined as the PPARγ ligand-binding activity of the sample.

[2] = test system: spontaneously diabetic mice (KK-A^y); experiment: adiponectin secretion amount in serum of spontaneously diabetic mice (KK-Ay), ELISA; assay type: in vivo
From the text: The present example verified the diabetes relieving-effect of nobiletin through an experiment using spontaneously diabetic mice (KK-A^y).
First, twelve spontaneously diabetic mice (6-week old, female) were fed preliminarily with normal diet for one week. Next, the mice were divided into two groups, namely, a control group and a NOB group (n=6) such that the average weights of these two groups were the same. Then, the mice of the control group were fed with high-fat diet only, whereas the mice of the NOB group were fed with high-fat diet containing 0.02% nobiletin. 27 days or 28 days after the initiation of feeding, serum was collected from these mice. […]
Only the strips of the antibody plates necessary for the analysis were taken out. […] Thereafter, 100 μl of the standard solutions with respective concentrations and 100 μl of the diluted specimen solutions were added to the individual wells and measured in duplicate. Note here that the standard solutions always were measured for each measurement and each plate. […] After 100 μl of the substrate solution was added to each well of the antibody plate and allowed to stand still for reaction for 15 minutes at room temperature, 100 μl of the reaction stop solution was added to each well of the antibody plate, and then the absorbance at 450 nm in each well was measured with a plate reader. […]

[3] = test system: adiponectin mRNA in 3T3-L1; experiment: adiponectin mRNA expression in differentiating 3T3-L1 preadipocytes (Light Cycler, ratio to 36B4); assay type: cell-based; settings: for Adiponectin mRNA expression amount (ratio to 36B4): 3T3-L1, 7 days after differentiation induction, non-treatment control = 100, average ± standard error
Method: (§1) (Differentiation Induction of Preadipocyte)
(§2) 1. Differentiation Induction Medium (0.25 μM DEX, 0.5 mM MIX, 10 μg/ml insulin/10% FBS/DMEM)
(§3) 55 ml of FBS (fetal bovine serum (available from GIBCO)) was added to 500 ml of DMEM (available from SIGMA) so as to prepare 10% FBS/DMEM. To this 10% FBS/DMEM, 138.75 μl of 1 mM DEX (dexamethasone)/DMSO (available from Nacalai Tesque, Inc.) and 555 μl of 10 mg/ml insulin/PBS (available from SIGMA) were added. Note here that the insulin/PBS was obtained by adding 1 N HCl to PBS in advance so as to make the solution acidic enough to allow insulin dissolution and then dissolving insulin. MIX (3-isobutyl-1-methylxanthine) (available from Nacalai Tesque, Inc.) was added to a necessary amount of the above-described medium immediately before use in such a manner as to achieve 0.5 mM concentration, thereby preparing a differentiation induction medium. Since MIX was very difficult to dissolve, it first was dissolved in a small amount of 99.5% ethanol and then added to 10% FBS/DMEM.
2. Differentiation Promotion Medium (5 μg/ml Insulin/10% FBS/DMEM)
A differentiation promotion medium was prepared by adding 277.5 μl of 10 mg/ml insulin/PBS to 555 ml of 10% FBS/DMEM.
Next, cultured preadipocytes 3T3-L1 were thawed, inoculated in a 100 mm dish and cultured until the 3T3-L1 cells reached about 80% confluence. A single dish of 3T3-L1 that had reached about 80% confluence was subcultured to a single 6-well plate and further cultured until the 3T3-L1 cells reached confluence in the 6-well plate, and then the medium was replaced with the differentiation induction medium, followed by differentiation induction. 48 hours later, the medium was replaced with the differentiation promotion medium, and thereafter, the medium was replaced with the differentiation promotion medium every two days. 7 days after the initiation of the differentiation induction, mRNA was extracted using a Sepasol-RNA I Super (trade name; available from Nacalai Tesque, Inc.), and the mRNA expression amounts of 36B4, aP2 and adiponectin, which were indicators of an early period of adipocyte differentiation, were measured using a Light Cycler™.
(§4) The medium was removed from the above-described Swell plate, 1 ml of Sepasol-RNA I Super (available from Nacalai Tesque, Inc.) was added to each well, and pipetting was repeated several times so as to disperse the cells. […] The resultant precipitate (total RNA) was dried and then dissolved in 20 μl of nuclease free water, and the concentration of mRNA was measured using Nanoprop (available from SCRUM Inc.).
(§5) The extracted and measured mRNA solution was adjusted to have an mRNA concentration of 1 μg/μl. […]

[4] = test system: aP2 mRNA in 3T3-L1; experiment: aP2 mRNA expression in differentiating 3T3-L1 preadipocytes (Light Cycler, ratio to 36B4); assay type: cell-based; settings: 3T3-L1, 7 days after differentiation induction, non-treatment control = 100, average ± standard error
Method: as §1, §2, §3
2. Differentiation Promotion Medium (5 μg/ml Insulin/10% FBS/DMEM) […]
Next, cultured preadipocytes 3T3-L1 were thawed, inoculated in a 100 mm dish and cultured until the 3T3-L1 cells reached about 80% confluence. […] 7 days after the initiation of the differentiation induction, mRNA was extracted using a Sepasol-RNA I Super (trade name; available from Nacalai Tesque, Inc.), and the mRNA expression amounts of 36B4, aP2 and adiponectin, which were indicators of an early period of adipocyte differentiation, were measured using a Light Cycler™.
as §4, §5

PPARγ ligand activity ([1]; 0.1 μM): 96.5 ± 10.8
PPARγ ligand activity ([1]; 1.0 μM): 156.8 ± 11.3
PPARγ ligand activity ([1]; 10 μM): 200.5 ± 55.1
PPARγ ligand activity ([1]; 50 μM): 246 ± 41.7
SMILES: COc1ccc(-c2cc(=O)c3c(OC)c(OC)c(OC)c(OC)c3o2)cc1OC [nobiletin]
PPARγ activity, result in words ([1]; 0.1-50 μM, versus non-treatment control): increased significantly in keeping with the concentration of nobiletin
Adiponectin secretion amount ([2]; KK-Ay mice, high-fat diet containing 0.02% nobiletin, serum 27 or 28 days after initiation of feeding, average ± standard error, n=6, control group 4.78 ± 0.096): 7.18 ± 0.50
adiponectin secretion amount, result in words ([2]; diabetic mice of NOB group versus control group): increase the adiponectin secretion amount in the adipocytes significantly
Adiponectin mRNA expression amount (ratio to 36B4) ([3]; 5 μM): 265.1 ± 60.4
Adiponectin mRNA expression amount (ratio to 36B4) ([3]; 10 μM): 352.3 ± 28.5
Adiponectin mRNA expression amount (ratio to 36B4) ([3]; 1 μm): 164.9 ± 18.7
secretion of adiponectin in adipocytes, result in words ([3]; 3T3-L1 cultured with nobiletin versus non-treated control medium): enhance the secretion of adiponectin in the adipocytes significantly
aP2 mRNA expression amount (ratio to 36B4) ([4]; 5 μM): 193.7 ± 41.4
aP2 mRNA expression amount (ratio to 36B4) ([4]; 10 μM): 273.1 ± 13.8
aP2 mRNA expression amount (ratio to 36B4) ([4]; 1 μm): 155.8 ± 21.7

From patent publication US20070213282A1, “Peroxisome proliferator-activated receptor (PPAR) activator, and drugs, supplements, functional foods and food additives using the same” (ARKRAY, Inc., priority 2004, published 2007)
